Drawing on patent US20250325711A1, “COVALENT FLUORESCENT PROBES FOR CANNABINOID RECEPTOR 2” (Hoffmann-La Roche Inc., priority 2022, published 2025), this text covers Kd for one molecule.

The assay has as its target hCB2R (Homo sapiens (Human), UniProt P34972). The experiment in a line: TR-FRET hCB2R Binding Assay. As to conditions: SNAP-tagged human CB2R HEK293-TR cell membranes, TR-FRET (HTRF) detection, nonspecific binding with 1 μM SR144528; read-out: Kd hCB2R. A general note: In TR-FRET formats the signal depends on donor and acceptor labels being close together.

The structures appear in SMILES notation.

What is called Kd is the free concentration of one partner at which half of the binding sites on the other are occupied at equilibrium, for simple one-to-one binding. For the molecule `COc1cc(C(C)(C)CCCCCCN=[N+]=[N-])cc(OC)c1[C@H]1C=C(CNC(=O)CCCCCCOc2c(F)c(F)c3c(c2F)C2(OC3=O)c3ccc(N4CCC4)cc3[Si](C)(C)c3cc(N4CCC4)ccc32)[C@H]2C[C@@H]1C2(C)C` [Example 19, N-(((1S,4S,5S)-4-(4-(8-azido-2-methyloctan-2-yl)-2,6-dimethoxyphenyl)-6,6-dimethylbicyclo[3.1.1]hept-2-en-2-yl)methyl)-7-((3,7-di(azetidin-1-yl)-4′,5′,7′-trifluoro-5,5-dimethyl-3′-oxo-3′H,5H-spiro[dibenzo[b,e]siline-10,1′-isobenzofuran]-6′-yl)oxy)heptanamide], the Kd is 2 nM.
